Assay results as given in patent US9801738B2, “Liquid cast biodegradable arterial stent” (Northwestern University, priority 2010, dated 2017).

Tests used:
[1] = cited from earlier work
neointimal hyperplasia = test: rat carotid artery injury model, inhibition of neointimal hyperplasia by NO donors; type: in vivo
Method: Using the standard rat carotid artery injury model, the efficacy of two different diazeniumdiolates with markedly different half-lives at inhibiting neointimal hyperplasia were evaluated. […] The two different NO donors investigated were: 1-[2-(carboxylato)pyrrolidin-1-yl]diazen-1-ium-1,2-diolate (PROLI/NO), a short half-life donor, and diazeniumdiolated poly(acrylonitrile) (PAN/NO), a long half-life donor.
To date, it remains unknown how much NO is required in the vasculature to inhibit the subsequent neointimal hyperplasia from developing in humans. In order to estimate how much NO is required in the vasculature to inhibit the subsequent neointimal hyperplasia from developing in humans, the observed NO release may be compared to: 1) data from animal experiments, and 2) known endogenous NO production in humans. […] Because diazeniumdiolates release 2 moles of NO per mole of compound upon reaction with hydrogen ions, it follows that 20 mg of PROLI/NO releases 160 μmoles of NO. Thus, the current formulation that releases 112 μmole/gm (FIG. 10) is similar to what has been used in rat models. An alternative method of estimating whether the current NO-releasing material will produce sufficient NO is to compare the material against known rates of endogenous NO release. […]

SMILES: NCCN(CCN)/[N+]([O-])=N/O [DETA/NO]
- half-life [1]: 20 h

SMILES: O=C(O)C1CCCN1[N+]([O-])=NO (stereo not drawn) [PROLI/NO, 1-[2-(carboxylato)pyrrolidin-1-yl]diazen-1-ium-1,2-diolate]
- inhibition of neointimal hyperplasia (neointimal hyperplasia; applied to the periadventitial aspect of an injured artery, 20 mg in rodents): 91%
- inhibition of intimal area versus injury alone (neointimal hyperplasia; two weeks after injury, rat carotid artery injury model, p<0.05): 91.2%
